{"source": "ChEMBL document CHEMBL1201861", "about": "“Genomics of Drug Sensitity in Cancer screening data, Wellcome Trust Sanger Institute”", "key": {"DMS-153": {"tested_on": "DMS-153", "assay": "cells", "format": "functional, cell-based, Homo sapiens", "conditions": "Homo sapiens, DMS-153", "description": "SANGER: Inhibition of human DMS-153 cell growth in a cell viability assay."}, "DMS-79": {"tested_on": "DMS-79", "assay": "cells", "format": "functional, cell-based, Homo sapiens", "conditions": "Homo sapiens, DMS-79", "description": "SANGER: Inhibition of human DMS-79 cell growth in a cell viability assay."}, "Daudi": {"tested_on": "Daudi", "assay": "cells", "format": "functional, cell-based, Homo sapiens", "conditions": "Homo sapiens, Daudi", "description": "SANGER: Inhibition of human Daudi cell growth in a cell viability assay."}, "EC-GI-10": {"tested_on": "EC-GI-10", "assay": "cells", "format": "functional, cell-based, Homo sapiens", "conditions": "Homo sapiens, EC-GI-10", "description": "SANGER: Inhibition of human EC-GI-10 cell growth in a cell viability assay."}, "IM-9": {"tested_on": "IM-9", "assay": "SANGER: Inhibition of human IM-9 cell growth in a cell viability assay.", "format": "functional, cell-based", "conditions": "Homo sapiens, IM-9"}, "L-540": {"tested_on": "L-540", "assay": "cells", "format": "functional, cell-based, Homo sapiens", "conditions": "Homo sapiens, L-540", "description": "SANGER: Inhibition of human L-540 cell growth in a cell viability assay."}, "LP-1": {"tested_on": "LP-1", "assay": "cells", "format": "functional, cell-based, Homo sapiens", "conditions": "Homo sapiens, LP-1", "description": "SANGER: Inhibition of human LP-1 cell growth in a cell viability assay."}, "NCI-H1436": {"tested_on": "NCI-H1436", "assay": "cells", "format": "functional, cell-based, Homo sapiens", "conditions": "Homo sapiens, NCI-H1436", "description": "SANGER: Inhibition of human NCI-H1436 cell growth in a cell viability assay."}, "NCI-H187": {"tested_on": "NCI-H187", "assay": "cells", "format": "functional, cell-based, Homo sapiens", "conditions": "Homo sapiens, NCI-H187", "description": "SANGER: Inhibition of human NCI-H187 cell growth in a cell viability assay."}, "NCI-H345": {"tested_on": "NCI-H345", "assay": "cells", "format": "functional, cell-based, Homo sapiens", "conditions": "Homo sapiens, NCI-H345", "description": "SANGER: Inhibition of human NCI-H345 cell growth in a cell viability assay."}, "SNU-16": {"tested_on": "SNU-16", "assay": "cells", "format": "functional, cell-based, Homo sapiens", "conditions": "Homo sapiens, SNU-16", "description": "SANGER: Inhibition of human NCI-SNU-16 cell growth in a cell viability assay."}, "OPM-2": {"tested_on": "OPM-2", "assay": "cells", "format": "functional, cell-based, Homo sapiens", "conditions": "Homo sapiens, OPM-2", "description": "SANGER: Inhibition of human OPM-2 cell growth in a cell viability assay."}, "REH": {"tested_on": "REH", "assay": "cells", "format": "functional, cell-based, Homo sapiens", "conditions": "Homo sapiens, REH", "description": "SANGER: Inhibition of human REH cell growth in a cell viability assay."}, "RPMI 8402": {"tested_on": "RPMI 8402", "assay": "SANGER: Inhibition of human RPMI-8402 cell growth in a cell viability assay.", "format": "functional, cell-based", "conditions": "Homo sapiens, RPMI 8402"}, "SIG-M5": {"tested_on": "SIG-M5", "assay": "cells", "format": "functional, cell-based, Homo sapiens", "conditions": "Homo sapiens, SIG-M5", "description": "SANGER: Inhibition of human SIG-M5 cell growth in a cell viability assay."}, "SK-MM-2": {"tested_on": "SK-MM-2", "assay": "cells", "format": "functional, cell-based, Homo sapiens", "conditions": "Homo sapiens, SK-MM-2", "description": "SANGER: Inhibition of human SK-MM-2 cell growth in a cell viability assay."}, "SNU-C1": {"tested_on": "SNU-C1", "assay": "cells", "format": "functional, cell-based, Homo sapiens", "conditions": "Homo sapiens, SNU-C1", "description": "SANGER: Inhibition of human SNU-C1 cell growth in a cell viability assay."}, "SUP-T1": {"tested_on": "SUP-T1", "assay": "cells", "format": "functional, cell-based, Homo sapiens", "conditions": "Homo sapiens, SUP-T1", "description": "SANGER: Inhibition of human SUP-T1 cell growth in a cell viability assay."}, "TALL-1": {"tested_on": "TALL-1", "assay": "cells", "format": "functional, cell-based, Homo sapiens", "conditions": "Homo sapiens, TALL-1", "description": "SANGER: Inhibition of human TALL-1 cell growth in a cell viability assay."}, "BC-3": {"tested_on": "BC-3", "assay": "cells", "format": "functional, cell-based, Homo sapiens", "conditions": "Homo sapiens, BC-3", "description": "SANGER: Inhibition of human BC-3 cell growth in a cell viability assay."}, "TUR": {"tested_on": "TUR", "assay": "cells", "format": "functional, cell-based, Homo sapiens", "conditions": "Homo sapiens, TUR", "description": "SANGER: Inhibition of human TUR cell growth in a cell viability assay."}, "HCC 2998": {"tested_on": "HCC 2998", "assay": "cells", "format": "functional, cell-based", "conditions": "Homo sapiens", "description": "SANGER: Inhibition of human HCC2998 cell growth in a cell viability assay."}}, "data": [{"compound": "C[C@@H](Oc1cc(-c2cnn(C3CCNCC3)c2)cnc1N)c1c(Cl)ccc(F)c1Cl", "note": "[CRIZOTINIB]", "values": [{"measurement": "IC50", "setting": "DMS-153", "value": "> 2", "unit": "µM"}, {"measurement": "IC50", "setting": "DMS-79", "value": "> 2", "unit": "µM"}, {"measurement": "IC50", "setting": "Daudi", "value": "> 2", "unit": "µM"}, {"measurement": "IC50", "setting": "EC-GI-10", "value": "> 2", "unit": "µM"}, {"measurement": "IC50", "setting": "IM-9", "value": "> 2", "unit": "µM"}, {"measurement": "IC50", "setting": "L-540", "value": "> 2", "unit": "µM"}, {"measurement": "IC50", "setting": "LP-1", "value": "> 2", "unit": "µM"}, {"measurement": "IC50", "setting": "NCI-H1436", "value": "> 2", "unit": "µM"}, {"measurement": "IC50", "setting": "NCI-H187", "value": "> 2", "unit": "µM"}, {"measurement": "IC50", "setting": "NCI-H345", "value": "> 2", "unit": "µM"}, {"measurement": "IC50", "setting": "SNU-16", "value": "> 2", "unit": "µM"}, {"measurement": "IC50", "setting": "OPM-2", "value": "> 2", "unit": "µM"}, {"measurement": "IC50", "setting": "REH", "value": "> 2", "unit": "µM"}, {"measurement": "IC50", "setting": "RPMI 8402", "value": "> 2", "unit": "µM"}, {"measurement": "IC50", "setting": "SIG-M5", "value": "> 2", "unit": "µM"}, {"measurement": "IC50", "setting": "SK-MM-2", "value": "> 2", "unit": "µM"}, {"measurement": "IC50", "setting": "SNU-C1", "value": "> 2", "unit": "µM"}, {"measurement": "IC50", "setting": "SUP-T1", "value": "> 2", "unit": "µM"}, {"measurement": "IC50", "setting": "TALL-1", "value": "> 2", "unit": "µM"}, {"measurement": "IC50", "setting": "BC-3", "value": "> 2", "unit": "µM"}, {"measurement": "IC50", "setting": "TUR", "value": "> 2", "unit": "µM"}]}, {"compound": "Nc1ccccc1NC(=O)c1ccc(CNC(=O)OCc2cccnc2)cc1", "note": "[ENTINOSTAT]", "values": [{"measurement": "IC50", "setting": "DMS-153", "value": 0.975, "unit": "µM"}, {"measurement": "IC50", "setting": "DMS-79", "value": 2.54, "unit": "µM"}, {"measurement": "IC50", "setting": "Daudi", "value": 0.777, "unit": "µM"}, {"measurement": "IC50", "setting": "EC-GI-10", "value": "> 5", "unit": "µM"}, {"measurement": "IC50", "setting": "HCC 2998", "value": 0.784, "unit": "µM"}, {"measurement": "IC50", "setting": "IM-9", "value": "> 5", "unit": "µM"}, {"measurement": "IC50", "setting": "L-540", "value": 1.11, "unit": "µM"}, {"measurement": "IC50", "setting": "LP-1", "value": 1.3, "unit": "µM"}, {"measurement": "IC50", "setting": "NCI-H1436", "value": 4.18, "unit": "µM"}, {"measurement": "IC50", "setting": "NCI-H187", "value": 0.492, "unit": "µM"}, {"measurement": "IC50", "setting": "NCI-H345", "value": 2.33, "unit": "µM"}, {"measurement": "IC50", "setting": "SNU-16", "value": "> 5", "unit": "µM"}, {"measurement": "IC50", "setting": "OPM-2", "value": 0.415, "unit": "µM"}, {"measurement": "IC50", "setting": "REH", "value": "> 5", "unit": "µM"}, {"measurement": "IC50", "setting": "RPMI 8402", "value": 0.387, "unit": "µM"}, {"measurement": "IC50", "setting": "SIG-M5", "value": 0.578, "unit": "µM"}, {"measurement": "IC50", "setting": "SK-MM-2", "value": 0.399, "unit": "µM"}, {"measurement": "IC50", "setting": "SNU-C1", "value": "> 5", "unit": "µM"}, {"measurement": "IC50", "setting": "SUP-T1", "value": "> 5", "unit": "µM"}, {"measurement": "IC50", "setting": "TALL-1", "value": "> 5", "unit": "µM"}, {"measurement": "IC50", "setting": "BC-3", "value": 0.783, "unit": "µM"}, {"measurement": "IC50", "setting": "TUR", "value": "> 5", "unit": "µM"}]}]}
